The values below come from patent publication US12325676B2, “Cationic lipid compound and composition for delivery of nucleic acids and use thereof” (Shenzhen Rhegen Biotechnology Co., Ltd., priority 2022, dated 2025).

The test deals with BALB/c mice. Kind of test: In vivo EPO protein expression after tail i.v. injection of EPO-mRNA LNP, serum ELISA. Conditions: 6 hours after tail i.v. injection of 20 μg EPO-mRNA-lipid nanoparticles, female Balb/c mice. The method, then: In the example, the effects of in vivo transfection of erythropoietin (EPO) by various cationic liposomes were compared. Nanoparticles were prepared in the same manner as in Example 20, and the nucleotide sequence corresponding to the EPO mRNA used is given in CN114380724B, SEQ ID NO:2. After preparation, 20 μg of EPO-mRNA-lipid nanoparticles were injected via tail intravenous injection in 6-8 week female Balb/c mice. 6 hours later the mice were subjected to blood sampling from the eye frame. After centrifugation to separate the serum, EPO protein expression was determined using ELISA. The basic characteristics of the mRNA used include ARCA cap structure, polyA tail length of 100-120 nt, and complete substitution of pseudouridine.

Each structure is given as a SMILES string.

For the compound `CCCCCCCCSCC(C)C(=O)OCCCCCN(CCO)CCCCCCCC(=O)OC(CCCCCCCC)CCCCCCCC` (stereo not shown) [Compound 35], the “EPO concentration” value is 5.73e+07 pg/mL.
